*1 amine or outer side, *2 acyl side, *3 side chain or, on linkers, in order; H or OH if unused. Where a SMILES comes first, the peptide text is derived from it. Bridges are numbered along the chain shown (N, C = ends). [ ]: non-standard residue; d: D form. Abu(4-yl) = O=C([C@H](CC[*:3])N[*:1])[*:2]; Pen = CC(C)(S)[C@H](N)C(=O)O; hLeu = CC(C)CC[C@H](N)C(=O)O
What was measured:
[1] = Inhibition of interleukin-23 binding to rat interleukin-23 receptor incubated for 2 hrs by competitive binding ELISA
Interleukin-23 receptor [2] = molecular target: T1, Interleukin-23 receptor (Homo sapiens, UniProt Q5VWK5); assay: Inhibition of interleukin-23 receptor in human DB cells assessed as reduction in IL-23-stimulated STAT3 phosphorylation incubated for 30 mins by HTRF assay; type: cell-based
T1 sequence (Q5VWK5 whole entry): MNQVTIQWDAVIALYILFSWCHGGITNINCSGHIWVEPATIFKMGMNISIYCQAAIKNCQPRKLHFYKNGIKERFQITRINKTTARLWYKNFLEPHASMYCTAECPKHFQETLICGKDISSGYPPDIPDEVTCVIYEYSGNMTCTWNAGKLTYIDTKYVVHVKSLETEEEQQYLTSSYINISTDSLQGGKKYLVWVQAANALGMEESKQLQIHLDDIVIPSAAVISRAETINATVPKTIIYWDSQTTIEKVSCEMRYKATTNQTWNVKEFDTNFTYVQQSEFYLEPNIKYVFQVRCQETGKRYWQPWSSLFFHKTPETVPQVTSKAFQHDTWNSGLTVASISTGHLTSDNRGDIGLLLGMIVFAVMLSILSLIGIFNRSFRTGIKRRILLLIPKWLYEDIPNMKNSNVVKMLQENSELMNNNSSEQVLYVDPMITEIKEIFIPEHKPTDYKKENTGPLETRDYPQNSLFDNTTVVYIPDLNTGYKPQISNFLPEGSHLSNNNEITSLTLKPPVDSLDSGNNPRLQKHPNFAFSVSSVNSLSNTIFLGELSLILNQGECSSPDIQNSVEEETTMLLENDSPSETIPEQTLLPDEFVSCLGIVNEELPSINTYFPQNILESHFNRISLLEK

[3] = Half life in simulated intestinal fluid at 20 uM by LC-MS/MS analysis; type: ADME
Interleukin-23 receptor [4] = molecular target: T1, Interleukin-23 receptor; assay: Inhibition of interleukin-23 binding to human interleukin-23 receptor incubated for 2 hrs by competitive binding ELISA

SMILES | IC50 [1] [nM] | IC50 (Interleukin-23 receptor [2]) [nM] | half-life at 20 µM [3] [h] | IC50 (Interleukin-23 receptor [4]) [nM]
CC(=O)N[C@@H](CS)C(=O)N[C@@H](CCC(N)=O)C(=O)N[C@H](C(=O)N[C@@H](Cc1c[nH]c2ccccc12)C(=O)N[C@@H](CCC(N)=O)C(=O)N[C@@H](CS)C(=O)N[C@@H](Cc1ccc(O)cc1)C(=O)N[C@@H](Cc1ccc(-c2ccccc2)cc1)C(=O)N[C@@H](CCC(C)C)C(=O)N[C@@H](CCC(=O)O)C(=O)N[C@@H](CC(N)=O)C(=O)NCC(N)=O)[C@@H](C)O | 51 | – | – | –
CC(=O)NCCCC[C@H](NC(=O)[C@H](CCCN)NC(=O)[C@H](Cc1ccc2ccccc2c1)NC(=O)[C@H](Cc1ccc(OCCN)cc1)NC(=O)[C@@H]1CSCC[C@H](NC(C)=O)C(=O)N[C@@H](CCC(N)=O)C(=O)N[C@@H]([C@@H](C)O)C(=O)N[C@@H](Cc2c[nH]c3ccccc23)C(=O)N[C@@H](CCC(N)=O)C(=O)N1)C(=O)N[C@@H](CC(N)=O)C(=O)NCC(N)=O | – | 10 to 25 | < 1 | 10 to 25
CC(=O)NCCCC[C@H](NC(=O)[C@](C)(CCCCN)NC(=O)[C@H](Cc1ccc2ccccc2c1)NC(=O)[C@H](Cc1c(C)cc(O)cc1C)NC(=O)[C@@H]1CSCC[C@H](NC(C)=O)C(=O)N[C@@H](CCC(N)=O)C(=O)N[C@@H]([C@@H](C)O)C(=O)N[C@@H](Cc2c[nH]c3ccccc23)C(=O)N[C@@H](CCC(N)=O)C(=O)N1)C(=O)N[C@@H](CC(N)=O)C(=O)NCC(N)=O | – | – | > 6 | > 1000
CC(=O)NCCCC[C@H](NC(=O)[C@](C)(CCCCN)NC(=O)[C@H](Cc1ccc2ccccc2c1)NC(=O)[C@H](Cc1ccc(Cl)c(Cl)c1)NC(=O)[C@@H]1CSCC[C@H](NC(C)=O)C(=O)N[C@@H](CCC(N)=O)C(=O)N[C@@H]([C@@H](C)O)C(=O)N[C@@H](Cc2c[nH]c3ccccc23)C(=O)N[C@@H](CCC(N)=O)C(=O)N1)C(=O)N[C@@H](CC(N)=O)C(=O)NCC(N)=O | – | 25 to 100 | 2 to 3 | 100 to 1000
CC(=O)NC[C@H](NC(=O)[C@H](CCCN)NC(=O)[C@H](Cc1c[nH]c2ccccc12)NC(=O)[C@H](Cc1ccc(OCCN)cc1)NC(=O)[C@@H]1CSCC[C@H](NC(C)=O)C(=O)N[C@@H](CCC(N)=O)C(=O)N[C@@H]([C@@H](C)O)C(=O)N[C@@H](Cc2c[nH]c3ccccc23)C(=O)N[C@@H](CCC(N)=O)C(=O)N1)C(=O)N[C@@H](CC(N)=O)C(=O)NCC(N)=O | – | – | < 1 | 100 to 1000
CC(=O)N[C@H]1CCSC(C)(C)[C@@H](C(=O)N[C@@H](Cc2ccc(O)cc2)C(=O)N[C@@H](Cc2c[nH]c3ccccc23)C(=O)N[C@@H](CCC(C)C)C(=O)N[C@@H](CCC(=O)O)C(=O)N[C@@H](CC(N)=O)C(=O)NCC(N)=O)NC(=O)[C@H](CCC(N)=O)NC(=O)[C@H](Cc2c[nH]c3ccccc23)NC(=O)[C@H]([C@@H](C)O)NC(=O)[C@H](CCC(N)=O)NC1=O (Ac-[Abu(4-yl)]QTWQ[Pen]YW[hLeu]ENG-NH2; thioether 1-6) | – | – | < 1 | > 1000
COc1ccc(C[C@H](NC(=O)[C@@H]2CSCC[C@H](NC(C)=O)C(=O)N[C@@H](CCC(N)=O)C(=O)N[C@@H]([C@@H](C)O)C(=O)N[C@@H](Cc3c[nH]c4ccccc34)C(=O)N[C@@H](CCC(N)=O)C(=O)N2)C(=O)N[C@@H](Cc2ccc3ccccc3c2)C(=O)N[C@@H](CCCN)C(=O)N[C@@H](CCCCNC(C)=O)C(=O)N[C@@H](CC(N)=O)C(=O)NCC(N)=O)cc1 | – | – | > 6 | 100 to 1000
CC(=O)N[C@H]1CCSC[C@@H](C(=O)N[C@@H](Cc2ccc(O)cc2)C(=O)N[C@@H](Cc2c[nH]c3ccccc23)C(=O)N[C@@H](CCC(C)C)C(=O)N[C@@H](CCC(=O)O)C(=O)N[C@@H](CC(N)=O)C(=O)NCC(N)=O)NC(=O)[C@H](CCC(N)=O)NC(=O)[C@H](Cc2c[nH]c3ccccc23)NC(=O)[C@H]([C@@H](C)O)NC(=O)[C@H](CCC(N)=O)NC1=O | – | 10 to 25 | < 1 | 25 to 100
COc1ccc(CC[C@H](NC(=O)[C@@H]2CSCC[C@H](NC(C)=O)C(=O)N[C@@H](CCC(N)=O)C(=O)N[C@@H]([C@@H](C)O)C(=O)N[C@@H](Cc3c[nH]c4ccccc34)C(=O)N[C@@H](CCC(N)=O)C(=O)N2)C(=O)N[C@@H](Cc2ccc3ccccc3c2)C(=O)N[C@@](C)(CCCCN)C(=O)N[C@@H](CCCCNC(C)=O)C(=O)N[C@@H](CC(N)=O)C(=O)NCC(N)=O)cc1OC | – | – | 3 to 6 | > 1000
CC(=O)N[C@H]1CCSC[C@H](C(=O)N[C@@H](Cc2ccc(O)cc2)C(=O)N[C@@H](Cc2c[nH]c3ccccc23)C(=O)N[C@@H](CCC(C)C)C(=O)N[C@@H](CCC(=O)O)C(=O)N[C@@H](CC(N)=O)C(=O)NCC(N)=O)NC(=O)[C@H](CCC(N)=O)NC(=O)[C@H](Cc2c[nH]c3ccccc23)NC(=O)[C@H]([C@@H](C)O)NC(=O)[C@H](CCC(N)=O)NC1=O | – | – | 1 to 2 | > 1000
CC(=O)N[C@@H](CS)C(=O)N[C@@H](CCC(N)=O)C(=O)N[C@H](C(=O)N[C@@H](Cc1c[nH]c2ccccc12)C(=O)N[C@@H](CCC(N)=O)C(=O)N[C@H](C(=O)N[C@@H](Cc1ccc(O)cc1)C(=O)N[C@@H](Cc1c[nH]c2ccccc12)C(=O)N[C@H](CC(N)=O)C(=O)N[C@@H](CCC(=O)O)C(=O)N[C@@H](CC(N)=O)C(=O)NCC(N)=O)C(C)(C)S)[C@@H](C)O | – | – | < 1 | 1000 to 10000
CCCCCCCC[C@H](NC(=O)[C@H](Cc1ccc(OC)cc1)NC(=O)[C@@H]1CSCC[C@H](NC(C)=O)C(=O)N[C@@H](CCC(N)=O)C(=O)N[C@@H]([C@@H](C)O)C(=O)N[C@@H](Cc2c[nH]c3ccccc23)C(=O)N[C@@H](CCC(N)=O)C(=O)N1)C(=O)N[C@@](C)(CCCCN)C(=O)N[C@@H](CCCCNC(C)=O)C(=O)N[C@@H](CC(N)=O)C(=O)NCC(N)=O | – | – | 1 to 2 | 10000
CC(=O)N[C@H](C(=O)N[C@@H](CCC(N)=O)C(=O)N[C@H](C(=O)N[C@@H](Cc1c[nH]c2ccccc12)C(=O)N[C@@H](CCC(N)=O)C(=O)N[C@H](C(=O)N[C@@H](Cc1ccc(O)cc1)C(=O)N[C@@H](Cc1c[nH]c2ccccc12)C(=O)N(C)[C@@H](CCCNC(=N)N)C(=O)N[C@@H](CCC(=O)O)C(=O)N[C@@H](CC(N)=O)C(=O)NCC(N)=O)C(C)(C)S)[C@@H](C)O)C(C)(C)S | – | – | 2 to 3 | > 30000
CC(=O)N[C@H]1CCSC[C@@H](C(=O)N[C@@H](Cc2ccc(OCCN)cc2)C(=O)N[C@@H](Cc2c[nH]c3ccccc23)C(=O)N[C@@H](CCCN)C(=O)N[C@@H](CN)C(=O)N[C@@H](CC(N)=O)C(=O)NCC(N)=O)NC(=O)[C@H](CCC(N)=O)NC(=O)[C@H](Cc2c[nH]c3ccccc23)NC(=O)[C@H]([C@@H](C)O)NC(=O)[C@H](CCC(N)=O)NC1=O | – | – | < 1 | 100 to 1000
CC(=O)NCCCC[C@H](NC(=O)[C@](C)(CCCCN)NC(=O)[C@H](Cc1ccc2ccccc2c1)NC(=O)[C@H](Cc1ccc(Oc2ccccc2)cc1)NC(=O)[C@@H]1CSCC[C@H](NC(C)=O)C(=O)N[C@@H](CCC(N)=O)C(=O)N[C@@H]([C@@H](C)O)C(=O)N[C@@H](Cc2c[nH]c3ccccc23)C(=O)N[C@@H](CCC(N)=O)C(=O)N1)C(=O)N[C@@H](CC(N)=O)C(=O)NCC(N)=O | – | – | > 6 | 100 to 1000
CC(=O)N[C@H]1CCSC[C@@H](C(=O)N[C@@H](Cc2ccc(OCCN)cc2)C(=O)N[C@@H](Cc2c[nH]c3ccccc23)C(=O)N[C@@H](CCCN)C(=O)N[C@@H](CCC(=O)O)C(=O)N[C@@H](CC(N)=O)C(=O)NCC(N)=O)NC(=O)[C@H](CCC(N)=O)NC(=O)[C@H](Cc2c[nH]c3ccccc23)NC(=O)[C@H]([C@@H](C)O)NC(=O)[C@H](CCC(N)=O)NC1=O | – | – | < 1 | 25 to 100
CC(=O)N[C@H]1CCSC[C@@H](C(=O)N[C@@H](Cc2ccc(OCCN)cc2)C(=O)N[C@@H](Cc2ccc3ccccc3c2)C(=O)N[C@@H](CCCN)C(=O)N[C@@H](CN)C(=O)N[C@@H](CC(N)=O)C(=O)NCC(N)=O)NC(=O)[C@H](CCC(N)=O)NC(=O)[C@H](Cc2c[nH]c3ccccc23)NC(=O)[C@H]([C@@H](C)O)NC(=O)[C@H](CCC(N)=O)NC1=O | – | 25 to 100 | < 1 | 25 to 100
CC(=O)NC[C@H](NC(=O)[C@H](CCCN)NC(=O)[C@H](Cc1ccc2ccccc2c1)NC(=O)[C@H](Cc1ccc(OCCN)cc1)NC(=O)[C@@H]1CSCC[C@H](NC(C)=O)C(=O)N[C@@H](CCC(N)=O)C(=O)N[C@@H]([C@@H](C)O)C(=O)N[C@@H](Cc2c[nH]c3ccccc23)C(=O)N[C@@H](CCC(N)=O)C(=O)N1)C(=O)N[C@@H](CC(N)=O)C(=O)NCC(N)=O | – | – | < 1 | 25 to 100

— ChEMBL document CHEMBL4417631, “Oral peptide inhibitors of interleukin-23 receptor and their use to treat inflammatory bowel diseases” (2017)
